The values that follow come from patent US20150335579A1, “MULTILAYER TABLET CONTAINING TELMISARTAN AND HYDROCHLOROTHIAZIDE” (Sawai Pharmaceutical Co., Ltd., priority 2013, published 2015).

SMILES strings stand for the structures.

This data set is described as follows: Moisture absorbency of telmisartan and telmisartan meglumine salt. The format is physicochemical. The text has this:
As mentioned above, it is known that the hydrolysis of hydrochlorothiazide is promoted by temperature and humidity.

For `CCCc1nc2c(C)cc(-c3nc4ccccc4n3C)cc2n1Cc1ccc(-c2ccccc2C(=O)O)cc1.CNCC(O)C(O)C(O)C(O)CO` [telmisartan meglumine salt], the “moisture absorbency relative to telmisartan itself” value was “about 10 times”.

Regarding `CCCc1nc2c(C)cc(-c3nc4ccccc4n3C)cc2n1Cc1ccc(-c2ccccc2C(=O)O)cc1` [telmisartan], for the setting “result in words”, the moisture absorbency result is listed as “relatively low”.
